Laboratory results published in patent publication US20090215742A1, “AMIDE […]” (PFIZER, INC., priority 2005, published 2009).

Target: T1, HSP-90 (Homo sapiens, UniProt P07900)
T1 construct: fused on or other part: 6-His tag at the C-terminus
Test: HSP-90 SPA (scintillation proximity assay) competition binding assay, displacement of tritiated propyl-Geldanamycin
Details: for inhibition at 1 µM: read-out: % inhibition @ 1 μM; for inhibition at 10 µM: read-out: % inhibition @ 10 μM
Experimental: Compounds of the present invention were evaluated for potency against HSP-90 using a SPA (scintillation proximity assay) competition binding assay. Briefly, either full length or N-terminal HSP-90 that contains a 6-His tag on its C-terminus binds to copper on Yttrium-silicate scintillant beads via the His-tag. Tritiated propyl-Geldanamycin (pGA), whose structure is shown below, is an analog of a natural inhibitor of HSP-90 called Geldanamycin.
Tritiated pGA, which contains a tritiated propyl-amine group added at the #17 position, binds HSP-90 and brings the isotope into proximity with the beads. […] The beta signal emitted from the isotope excites the scintillant, which creates a measurable signal. As competitive compounds are added to the assay mixture, they compete with bound tritiated pGA at the ATP-binding site on the N-terminal of HSP-90. When a compound displaces the labeled pGA, the signal is reduced (the beta-particles are no longer in proximity with the bead). This reduction in signal is used to quantify the extent to which the inhibitor/compound is competitive with pGA.
Typical reaction solutions contained 30 nM HSP-90 and 200 nM ^3H-pGA in binding buffer (100 mM Hepes, pH 7.5 and 150 mM KCl). […] Inhibitors were added to the HSP-90/^3H-pGA solutions at eleven different concentrations for Ki determinations. […] To determine percent inhibition, the compound was tested at 1 and 10 μM. The final DMSO in the samples was 4%. Copper-Ysi beads (Amersham, #RPNQ0096) that have been diluted in binding buffer were added to each well to give a final concentration of 100 μg/well. The plates were sealed, covered with a foil-covered lid and shaken for 30 minutes at room temperature. The beads were allowed to settle for 30 minutes after which the plates were counted using a Packard TopCount NXT instrument. This procedure has also been adapted for medium throughput using a Beckman Biomek FX. Samples were run in duplicate and on two separate days to assure an accurate value of Ki.
For Ki determinations, the corrected cpm's (actual cpm's minus background) were plotted vs. inhibitor concentration using GraphPad Prism software. […] The IC50 was then used to calculate the Ki by using the Cheng-Prusoff equation: […]
This is normally true when the observed IC50 is […] the HSP-90 concentration. For a tight binding inhibitor, the following equation can be applied: […]
EL and ELo are the radioligand-HSP-90 complexes in the presence and absence of inhibitor, respectively. EL/ELo represents the fractional signal in the presence of inhibitor. Io, Eo, and Lo are the inhibitor, HSP-90, and radioligand concentrations, respectively.

## O=C(c1ccc(O)cc1O)N1CCOCC(O)(COC2CCCC2)C1 (stereo not shown) [Example 61, 4-({6-[(cyclopentyloxy)methyl]-6-hydroxy-1,4-oxazepan-4-yl}carbonyl)benzene 1,3-diol]
  inhibition at 1 µM: 37.7%
  inhibition at 10 µM: 75.6%

## O=C(c1ccc(O)cc1O)N1CCCCC1c1nccs1 (stereo not shown) [Example 62, 4-{[2-(1,3-thiazol-2-yl)piperidin-1-yl]carbonyl}benzene 1,3-diol]
  inhibition at 1 µM: 12%
  inhibition at 10 µM: 64.4%

## O=C(c1ccc(O)cc1O)N1CCCCC1 [Example 63, 4-(piperidin-1-ylcarbonyl)benzene-1,3-diol]
  inhibition at 1 µM: 32.2%
  inhibition at 10 µM: 72%

## COCc1nccc(C2CCCN(C(=O)c3ccc(O)cc3O)C2)n1 (stereo not shown) [Example 64, 4-({3-[2-(methoxymethyl)pyrimidin-4-yl]piperidin-1-yl}carbonyl)benzene-1,3-diol]
  inhibition at 1 µM: 5.9%
  inhibition at 10 µM: 59.2%

## O=C(c1ccc(O)cc1O)N1CCC(CCc2ccccc2)C1 (stereo not shown) [Example 65, 4-{[3-(2-phenylethyl)pyrrolidin-1-yl]carbonyl}benzene-1,3-diol]
  inhibition at 1 µM: 69.7%
  inhibition at 10 µM: 87%

## C[C@@H](c1ccccc1)N(C)C(=O)c1ccc(O)cc1O [Example 66, 2,4-dihydroxy-N-methyl-N-(1-phenylethyl)benzamide]
  inhibition at 1 µM: 55.5%
  inhibition at 10 µM: 84.8%

## C[C@H](c1ccccc1)N(C)C(=O)c1ccc(O)cc1O [Example 67, 2,4-dihydroxy-N-methyl-N-(1-phenylethyl)benzamide]
  inhibition at 1 µM: -0.8%
  inhibition at 10 µM: 35.4%

## O=C(c1ccc(O)cc1O)N1CCC(Oc2ccc(Cl)cc2)CC1 [Example 68, 4-{[4-(4-chlorophenoxy)piperidin-1-yl]carbonyl}benzene-1,3-diol]
  inhibition at 1 µM: 37.2%
  inhibition at 10 µM: 78.6%

## O=C(c1ccc(O)cc1O)N1CCC(Oc2cccc(Cl)c2)CC1 [Example 69, 4-{[4-(3-chlorophenoxy)piperidin-1-yl]carbonyl}benzene-1,3-diol]
  inhibition at 1 µM: 33.9%
  inhibition at 10 µM: 76.6%

## O=C(c1ccc(O)cc1O)N1CCC(c2ccc(F)cc2)CC1 [Example 70, 4-{[4-(4-fluorophenyl)piperidin-1-yl]carbonyl}benzene-1,3-diol]
  inhibition at 1 µM: 40.2%
  inhibition at 10 µM: 79.1%

## O=C(c1ccc(O)cc1O)N1CCC(Oc2ccccc2)CC1 [Example 71, 4-[(4-phenoxypiperidin-1-yl)carbonyl]benzene-1,3-diol]
  inhibition at 1 µM: 37.3%
  inhibition at 10 µM: 79.3%

## COc1ccccc1OC1CCN(C(=O)c2ccc(O)cc2O)CC1 [Example 72, 4-{[4-(2-methoxyphenoxy)piperidin-1-yl]carbonyl}benzene-1,3-diol]
  inhibition at 1 µM: 13.2%
  inhibition at 10 µM: 62.4%

## Cc1ccccc1C1CCCN1C(=O)c1ccc(O)cc1O (stereo not shown) [Example 73, 4-{[2-(2-methylphenyl)pyrrolidin-1-yl]carbonyl}benzene-1,3-diol]
  inhibition at 1 µM: 82.7%
  inhibition at 10 µM: 91.6%

## Cc1ccc(OC2CCN(C(=O)c3ccc(O)cc3O)CC2)cc1 [Example 74, 4-{[4-(4-methylphenoxy)piperidin-1-yl]carbonyl}benzene-1,3-diol]
  inhibition at 1 µM: 47.7%
  inhibition at 10 µM: 80.7%

## Cc1cc(C)c2c(c1)CCC1(CCN(C(=O)c3ccc(O)cc3O)CC1)O2 [Example 75, 4-[(6,8-dimethyl-3,4-dihydro-1′H-spiro[chromene-2,4′-piperidin]-1′-yl)carbonyl]benzene 1,3-diol]
  inhibition at 1 µM: 51.6%
  inhibition at 10 µM: 82%

## O=C(c1ccc(O)cc1O)N1CCC(O)(c2ccc(Cl)cc2)CC1 [Example 76, 4-{[4-(4-chlorophenyl)-4-hydroxypiperidin-1-yl]carbonyl}benzene-1,3-diol]
  inhibition at 1 µM: 48.4%
  inhibition at 10 µM: 81%

## O=C(c1ccc(O)cc1O)N1CCC(O)(c2ccccc2)CC1 [Example 77, 4-[(4-hydroxy-4-phenylpiperidin-1-yl)carbonyl]benzene-1,3-diol]
  inhibition at 1 µM: 44.6%
  inhibition at 10 µM: 79.6%
